Consider 16 compounds from ChEMBL document CHEMBL4308823, “Small Molecule Mitochondrial Uncouplers and Their Therapeutic Potential” (J Med Chem, 2018).

A short description of data set [1]: Toxicity in rat. The conditions noted are these: in vivo.
Data set [2] can be described thus: Dissociation constant, pKa of compound.
Data set [3] in a line: Acute toxicity in C57BL/6J mouse administered via oral gavage. The conditions noted are these: in vivo.
Data set [4] is described as follows: Mitochondrial uncoupling activity in Arabidopsis root cells assessed as inhibition of clathrin-mediated endocytosis by measuring reduction of FM4-64 uptake. In kind it is functional, mitochondria, Arabidopsis thaliana, Mitochondria.
Data set [5] deals with Hepatocyte. Kind of data set: Cytotoxicity against Sprague-Dawley rat hepatocytes after 24 hrs by MTT assay. In kind it is cell-based.
Data set [6] in a line: Acute toxicity in po dosed mouse. The class given is organism-based. The conditions noted are these: in vivo.
For data set [7], the system named is HCT-116. Kind of data set: Cytotoxicity against human HCT116 cells after 48 hrs by MTT assay. The conditions noted are these: HCT-116, 48 h. In kind it is cell-based. Background: Formazan colour is commonly taken as a measure of viable cells.
In data set [8] the test system is Mus musculus. Kind of data set: Anorectic activity in C57Bl/6J mouse assessed as reduction in fat mass at 30 umol/kg for 6 consecutive days relative to control. The class given is functional. Further details: scale not given: the % may be the effect or the level left.
Data set [9] can be described thus: Uncoupling activity in rat mitochondria assessed as increase in oxygen consumption by mitochondrial respiration assay. In kind it is functional.
Data set [10] has as its system Mus musculus. Kind of data set: Anorectic activity in C57Bl/6J mouse assessed as reduction in body weight at 30 umol/kg for 6 consecutive days relative to control. The class given is functional. The arrangement: scale not given: the % may be the effect or the level left.
The test system of data set [11] is HL-60. Kind of data set: Cytotoxicity against human HL60 cells after 24 to 48 hrs by MTT assay. In kind it is cell-based.
The test system of data set [12] is Mus musculus. Kind of data set: Antiobesity activity in high fat diet-induced obese C57BL/6J mouse assessed as reduction in body fat mass at 5 mg/kg, po administered via gavage treated 3 times per week for 6 weeks relative to control. Further details: scale not given: the % may be the effect or the level left. The class given is functional.
The subject of data set [13] is Mus musculus. Put plainly: Antiobesity activity in high fat diet-induced obese C57BL/6J mouse assessed as reduction in body weight at 5 mg/kg, po administered via gavage treated 3 times per week for 6 weeks relative to control. The class given is functional. Further details: scale not given: the % may be the effect or the level left.
For data set [14], the system named is 143B. Put plainly: Cytotoxicity against human 143B cells after 24 hrs by LDH release assay. The class given is cell-based. For orientation: Release of lactate dehydrogenase indicates damage to the cell membrane.
Data set [15] can be described thus: Toxicity in dog. The arrangement: species or system Canis lupus familiaris. The note with it: in vivo.
Data set [16] can be described thus: Toxicity in human assessed as weight loss.
A short description of data set [17]: Toxicity in po dosed rat. The class given is organism-based. The conditions noted are these: in vivo.
Data set [18] deals with C2C12. Kind of data set: Cytotoxicity against mouse C2C12 cells after overnight incubation. The class given is cell-based.
The test system of data set [19] is Mus musculus. Put plainly: Antiobesity activity in high fat diet-induced obese C57BL/6 mouse assessed as reduction in fat mass at 50 umol/kg/day for 16 days relative to control. The arrangement: scale not given: the % may be the effect or the level left. The class given is functional.
Data set [20] concerns Mus musculus. Put plainly: Antiobesity activity in high fat diet-induced obese C57BL/6 mouse assessed as reduction in body weight at 50 umol/kg/day for 16 days relative to control. In kind it is functional. Further details: scale not given: the % may be the effect or the level left.
Data set [21] relates to Liver. Put plainly: Mitochondrial uncoupling activity in mouse liver mitochondria assessed as effect on succinoxldase coupled phosphorylation. In kind it is functional.
Data set [22] can be described thus: in vivo. The conditions noted are these: mouse.

One may read the LD50 as the dose expected to kill half of the subjects tested. One may read the pKa as the pH at which an ionisable group is half protonated. In the case of `CCCCN1CCCCC1C(=O)Nc1c(C)cccc1C` (configuration not stated) [BUPIVACAINE], the LD50 in data set [1] was 4.25 to 12.7 mg/kg. Further, the pKa in data set [2] was determined as 8.1.
Compound `CCOC(=O)C1=C(C)N=c2s/c(=C/c3cc(Br)c(O)c(Br)c3)c(=O)n2C1c1ccc(Cl)cc1` (configuration not stated) gave a median lethal dose (LD50) in data set [3] of 12.7 mg/kg.
In general, IC50 refers to the concentration needed to halve the response being measured. With `O=[N+]([O-])c1ccc(NS(=O)(=O)c2ccc(Br)s2)cc1`, the half-inhibitory concentration (IC50) in data set [4] was 5 µM.
Consider `CC(C)(C)c1cc(C=C(C#N)C#N)cc(C(C)(C)C)c1O` [TYRPHOSTIN A9], for which the half-maximal inhibitory concentration (IC50) in data set [5] is more than 0.97 µM; in [7], more than 0.2 µM. In addition, the 50% lethal dose (LD50) in [6] was determined as 29 mg/kg. Besides, in data set [2], the pKa came out at 6.7.
The term EC50 denotes the concentration giving half of the maximal effect. For the compound `CCCCOC(=O)c1ccccc1-c1c2cc(C)/c(=N\CC)cc-2oc2cc(NCC)c(C)cc12`, the Activity was found to be 20% in [8] and 19% in data set [10]. Also, in [9], the concentration giving a half-maximal response (EC50) turned out to be 1 µM. The compound further showed a pKa in data set [2] of 7.3.
Take `CC(C)(C)c1cc(Cl)cc(C(=O)Nc2ccc([N+](=O)[O-])cc2Cl)c1O`: in [2], the pKa came to 5.8.
For `NCCO.O=C(Nc1ccc([N+](=O)[O-])cc1Cl)c1cc(Cl)ccc1O`, in data set [1], the 50% lethal dose (LD50) was determined as 500 mg/kg.
As for `O=C(Nc1cc(Cl)cc(Cl)c1)Nc1cc(Cl)cc(Cl)c1`, the figures for the Activity in [11], in [12] and in data set [13] were more than 25 µM, 35% and 16%, respectively.
`O=[N+]([O-])c1cc(CCC[P+](c2ccccc2)(c2ccccc2)c2ccccc2)cc([N+](=O)[O-])c1O` had a pKa in data set [2] of 4.48.
In turn, `COC1=C(OC)C(=O)C(CCCCCCCCCC[P+](c2ccccc2)(c2ccccc2)c2ccccc2)=C(C)C1=O` [MITOQUINONE CATION] came in with an Activity in data set [14] of more than 10 µM.
Regarding `O=[N+]([O-])c1ccc(O)c([N+](=O)[O-])c1` [2,4-DINITROPHENOL], the 50% lethal dose (LD50) in data set [15] and in data set [17] was 30 mg/kg in each case. Besides, the LD in [16] was 0.8 to 3 g. This compound yielded a pKa in [2] of 4.1.
For the compound `O=[N+]([O-])c1ccc(OCc2ccc(OCCCC[P+](c3ccccc3)(c3ccccc3)c3ccccc3)cc2[N+](=O)[O-])c([N+](=O)[O-])c1`, the Activity in [18] was more than 5 µM.
`CCCCCCCCCCCC[P+](c1ccccc1)(c1ccccc1)c1ccccc1`: the Activity was 24% in data set [19] and 12% in [20].
Regarding `N#CC(C#N)=NNc1cccc(Cl)c1` [CARBONYL CYANIDE M-CHLOROPHENYLHYDRAZONE], the concentration for a half-maximal effect (EC50) in data set [21] was 0.1 µM.
Turning to `FC(F)(F)c1nc2c(Cl)c(Cl)c(Cl)c(Cl)c2[nH]1`, the pKa in [2] lay in the range of 5.04 to 5.6. The compound also yielded a median lethal dose (LD50) in data set [17] of 1.6 mg/kg.
Consider `N#CC(C#N)=NNc1ccc(OC(F)(F)F)cc1`, for which the concentration for a half-maximal effect (EC50) in data set [21] came to 0.04 µM. Moreover, the pKa in data set [2] was 6.2. The compound further gave an LD50 in [22] of 8 mg/kg.
